Results from patent publication US11806317B2, “Composition capable of promoting testosterone secretion and use thereof” (TCI CO., LTD, priority 2017, dated 2023).

System: mouse Leydig cells (TM3 cells, ATCC CRL1714)
Assay: Test of effects of plant extracts or combinations of components on testosterone secretion (testosterone ELISA of culture supernatant)
Type: cell-based
Conditions: 24 hours, control 100%
Method: 500 μl of the cell culture medium was added to each well of a 24-well plate to have 2×10^4 TM3 cells per well, and cultured at 37° C. for 24 hours. After the cells were adhered, the original medium was removed, and 500 μl of the aforementioned fresh cell culture medium was added.
The samples were then divided into two groups, of which group A was the control group, and no plant extracts or other test components were added. Group B was the test group. […] After that, the condition of the amount of testosterone secretion was analyzed. The doses shown in the tables are the doses of the single extract, or the combination of the extracts.
First, 50 μl of the supernatant of the culture medium after the reaction of each of the above groups was taken out, and the testosterone ELISA test kit (USCN, Cat# CEA458Ge) was used to detect the testosterone concentration. The detected values were then analyzed by Microsoft Excel software using Student's t-test to determine whether there is statistical significance between the two samples (* indicates p-value <0.05; ** indicates p-value <0.01; *** indicates p-value <0.001).

[1] = dose 0.125 mg/ml (single extract/component or 1:1 combination)
[2] = dose 0.25 mg/ml (single extract/component or 1:1 combination)

| Structure (SMILES) | Testosterone secretion relative to control [1] | Testosterone secretion relative to control [2] | Testosterone secretion relative to control (dose 0.03125 mg/ml (single extract/component or 1:1 combination)) |
| --- | --- | --- | --- |
| CC(C)=CCC/C(C)=C/C=C/C(C)=C/C=C/C(C)=C/C=C/C=C(C)/C=C/C=C(C)/C=C/C=C(\C)CCC=C(C)C [lycopene] | 99.94% | 104.02% |  |
| CC1=C(/C=C/C(C)=C/C=C/C(C)=C/C=C/C=C(C)/C=C/C=C(C)/C=C/C2=C(C)CCCC2(C)C)C(C)(C)CCC1 [beta carotene] | 103.79% | 111.42% | 66.21% |
